In article PMC5601071 (Frontiers in Pharmacology, 2017):
Like-named read-outs stand apart in the source and are kept apart here. Residues, ends and D or L forms follow the SMILES beside them. *: point of attachment. FITC = O=C1OC2(c3ccc(O)cc3Oc3cc(O)ccc32)c2ccc(NC(=S)*)cc21; Biotin = O=C1N[C@H]2[C@H](CS[C@H]2CCCCC(=O)*)N1; Fmoc = O=C(OCC1c2ccccc2-c2ccccc21)*; Stearoyl = CCCCCCCCCCCCCCCCCC(=O)*; Palmitoyl = CCCCCCCCCCCCCCCC(=O)*; Myristoyl = CCCCCCCCCCCCCC(=O)*; For = O=C*

Molecular target: T1, TREK-1 channel (hTREK-1/HEK cells) (Homo sapiens, UniProt O95069)
T1 construct: expressed in transfected cells
T1 sequence (O95069 1-426): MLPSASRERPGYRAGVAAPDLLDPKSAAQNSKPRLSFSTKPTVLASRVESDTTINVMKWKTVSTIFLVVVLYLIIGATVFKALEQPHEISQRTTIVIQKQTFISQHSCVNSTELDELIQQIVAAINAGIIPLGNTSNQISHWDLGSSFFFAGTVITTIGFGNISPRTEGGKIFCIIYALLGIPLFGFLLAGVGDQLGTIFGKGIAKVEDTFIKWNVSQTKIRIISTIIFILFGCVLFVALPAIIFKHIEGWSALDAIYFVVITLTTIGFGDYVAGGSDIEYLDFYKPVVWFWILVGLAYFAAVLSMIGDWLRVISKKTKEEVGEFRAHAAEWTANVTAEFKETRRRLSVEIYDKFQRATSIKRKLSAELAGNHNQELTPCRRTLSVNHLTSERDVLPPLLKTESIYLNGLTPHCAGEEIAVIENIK
Assay: TREK-1 current inhibition, whole-cell patch-clamp on hTREK-1/HEK cell line
Type: cell-based
Description: The human TREK-1/HEK cell line (Moha ou Maati et al., [2011]) and the native HEK293 cell line were maintained in Dulbecco's Modified Eagle's Medium (DMEM) supplemented with 10% (v/v) heat-inactivated fetal bovine serum, 1% (v/v) penicillin-streptomycin, 1% Glutamax. For the hTREK-1/HEK cells, 0.5 mg/ml G418 were added to the medium.
Cells were incubated in a humidified atmosphere containing 5% CO2. For electrophysiological measurements, cells were plated at a density of 20,000 cells per 35 mm dish.
Cells from the hTREK-1/HEK cell line were seeded at a density of 20,000 cells/35 mm dish. Electrophysiological recordings were performed 24–48 h after plating using the whole-cell configuration of patch-clamp technique. TREK-1 currents (ITREK−1) were recorded using RK400 patch-clamp amplifier (Axon Instrument, USA). They were low-pass filtered at 3 kHz and digitized at 10 kHz using a 12-bit analog-to-digital converter digidata (1322 series, Axon Instrument, USA). ITREK−1amplitudes were expressed as current densities [current amplitude (pA)/membrane capacitance (pF)]. The results were expressed as mean ± SEM (standard error of the mean).
Cells were continuously perfused using an external bath solution containing in mM: 150 NaCl, 5 KCl, 3 MgCl2, 1 CaCl2, and 10 HEPES. The bath solution was initially adjusted to pH 7.4 with NaOH. The intra-pipette solution contained in mM: 155 KCl, 3 MgCl2, 5 EGTA, and 10 HEPES adjusted to pH 7.2 with KOH. In order to measure ITREK−1, a cocktail of potassium channel blockers was added to the bath solution. This cocktail contained: 3 mM 4-AP (4-aminopyridine), 10 mM TEA (tetraethylammonium), 10 μM Glibenclamide, 100 nM Apamin, and 50 nM Charybdotoxin. Data acquisition was carried out using a computer (Dell Pentium) with pClamp software (Axon Instrument, USA). Whole-cell currents were generated by running a pulse or ramp protocol every 5 s from −100 to +60 mV with a holding potential maintained at −80 mV. To evaluate the inhibitory effect on TREK-1 channels of shortened spadin analogs compared with spadin, cells were first activated by 10 μM arachidonic acid (AA). Dose-response curves were realized to compare spadin-analog effects with spadin using Origin 8.6 (Northampton, MA, USA).
Patch-clamp recording data were analyzed using Clampfit (Molecular Devices, USA). I = f(V) curves were obtained from −100 to +60 mV ramp. Data were presented as mean ± SEM.

[1] = HEK293, read-out: % of TREK-1 inhibition
[2] = HEK293, peptide 100 nM, TREK-1 first activated with 10 μM arachidonic acid (AA), current density at 0 mV, hTREK-1/HEK cells, mean ± SEM, n = cells, read-out: % of TREK-1 inhibition

Row | SMILES | inhibition at 0.1 µM [1] | inhibition at 0.1 µM [2]
1 | CCCCCCCCCCCCCCCCCC(=O)NCC(=O)N[C@H](C(=O)N[C@@H](CO)C(=O)N[C@@H](Cc1c[nH]c2ccccc12)C(=O)NCC(=O)N[C@@H](CC(C)C)C(=O)N[C@@H](CCCNC(=N)N)C(=O)O)C(C)C [Stearic acid-PE 22-28] (Stearoyl-GVSWGLR-OH) | 5.41 ± 5.5% | –
2 | CCCCCCCCCCCCCCCC(=O)NCC(=O)N[C@H](C(=O)N[C@@H](CO)C(=O)N[C@@H](Cc1c[nH]c2ccccc12)C(=O)NCC(=O)N[C@@H](CC(C)C)C(=O)N[C@@H](CCCNC(=N)N)C(=O)O)C(C)C [Palmitoyl-PE 22-28] (Palmitoyl-GVSWGLR-OH) | 26.7 ± 16.4% | –
3 | CC(C)C[C@H](NC(=O)CNC(=O)[C@H](Cc1c[nH]c2ccccc12)NC(=O)[C@H](CO)NC(=O)[C@@H](NC(=O)CNC(=S)Nc1ccc2c(c1)C(=O)OC21c2ccc(O)cc2Oc2cc(O)ccc21)C(C)C)C(=O)N[C@@H](CCCNC(=N)N)C(=O)O [FITC-PE 22-28] ({FITC}-GVSWGLR-OH) | – | 22.1 ± 12.6%
4 | CC(C)C[C@H](NC(=O)CNC(=O)[C@H](Cc1c[nH]c2ccccc12)NC(=O)[C@H](CO)NC(=O)[C@@H](NC(=O)[C@H](C)N)C(C)C)C(=O)N[C@@H](CCCNC(=N)N)C(=O)O [G/A-PE 22-28] (H-AVSWGLR-OH) | – | 50.6 ± 7.93%
5 | CC(C)C[C@H](NC(=O)CNC(=O)[C@H](Cc1c[nH]c2ccccc12)NC(=O)[C@H](CO)NC(=O)[C@@H](NC(=O)CN)C(C)C)C(=O)O [PE 22-27] (H-GVSWGL-OH) | – | 25.7 ± 20%
6 | CC(C)C[C@H](NC(=O)CNC(=O)[C@H](Cc1c[nH]c2ccccc12)NC(=O)[C@H](CO)NC(=O)[C@@H](NC(=O)CNC=O)C(C)C)C(=O)N[C@@H](CCCNC(=N)N)C(=O)O [Formyl-PE 22-28] (For-GVSWGLR-OH) | 32.5 ± 12.2% | –
7 | CCOC(=O)[C@H](CCCNC(=N)N)NC(=O)[C@H](CC(C)C)NC(=O)CNC(=O)[C@H](Cc1c[nH]c2ccccc12)NC(=O)[C@H](CO)NC(=O)[C@@H](NC(=O)CN)C(C)C [PE 22-28-O-Ethyl] (H-GVSWGLR-OEt) | – | 41.4 ± 11.5%
8 | CC[C@H](C)[C@H](NC(=O)[C@@H]1CCCN1C(=O)CCCC[C@@H]1SC[C@@H]2NC(=O)N[C@@H]21)C(=O)NCC(=O)N[C@H](C(=O)N[C@@H](CO)C(=O)N[C@@H](Cc1c[nH]c2ccccc12)C(=O)NCC(=O)N[C@@H](CC(C)C)C(=O)N[C@@H](CCCNC(=N)N)C(=O)O)C(C)C [Biotinylated-PI-PE 22-28] (Biotin-PIGVSWGLR-OH) | – | 49.1 ± 7.45%
9 | COC(=O)[C@H](CCCNC(=N)N)NC(=O)[C@H](CC(C)C)NC(=O)CNC(=O)[C@H](Cc1c[nH]c2ccccc12)NC(=O)[C@H](CO)NC(=O)[C@@H](NC(=O)CN)C(C)C [PE 22-28-O-Methyl] (H-GVSWGLR-OMe) | – | 43 ± 13.5%
10 | CCCCCCCCCCCCCC(=O)NCC(=O)N[C@H](C(=O)N[C@@H](CO)C(=O)N[C@@H](Cc1c[nH]c2ccccc12)C(=O)NCC(=O)N[C@@H](CC(C)C)C(=O)N[C@@H](CCCNC(=N)N)C(=O)O)C(C)C [Myristoyl-PE 22-28] (Myristoyl-GVSWGLR-OH) | 18 ± 17.8% | –
11 | CC(=O)NCC(=O)N[C@H](C(=O)N[C@@H](CO)C(=O)N[C@@H](Cc1c[nH]c2ccccc12)C(=O)NCC(=O)N[C@@H](CC(C)C)C(=O)N[C@@H](CCCNC(=N)N)C(=O)O)C(C)C [Acetyl-PE 22-28] (Ac-GVSWGLR-OH) | 20.5 ± 8.78% | –
12 | CC(C)C[C@H](NC(=O)CNC(=O)[C@H](Cc1c[nH]c2ccccc12)NC(=O)[C@H](CO)NC(=O)[C@@H](NC(=O)CNC(=O)OCC1c2ccccc2-c2ccccc21)C(C)C)C(=O)N[C@@H](CCCNC(=N)N)C(=O)O [F-Moc-PE 22-28] (Fmoc-GVSWGLR-OH) | 5.83 ± 10.9% | –
13 | CC(C)C[C@H](NC(=O)CNC(=O)[C@H](Cc1c[nH]c2ccccc12)NC(=O)[C@H](CO)NC(=O)[C@@H](NC(=O)[C@H](C)NC(=O)CCCC[C@@H]1SC[C@@H]2NC(=O)N[C@@H]21)C(C)C)C(=O)N[C@@H](CCCNC(=N)N)C(=O)O [Biotinylated G/A-PE 22-28] (Biotin-AVSWGLR-OH) | – | 46.1 ± 7.74%
